{
  "source": "patent US20100286082A1",
  "about": "“RIBOSWITCHES AND METHODS AND COMPOSITIONS FOR USE OF AND WITH RIBOSWITCHES” (Yale University, priority 2007, published 2010)",
  "key": {"17-90 RNA": {"test_system": "17-90 RNA", "assay": "In-line probing of 17-90 RNA (preQ1-II aptamer)", "type": "binding, Streptococcus pneumoniae R6", "settings": "for binding by 17-90 RNA: compound concentrations up to 1 mM; for Kd: read-out: apparent KD"}, "68 metH RNA [1]": {"test_system": "68 metH RNA", "assay": "In-line probing of 68 metH RNA (SAH aptamer)", "type": "binding, Dechloromonas aromatica", "settings": "for modulation of the RNA structure: concentrations as high as 1 mM", "protocol": "iii. In-Line Probing Analysis In-line probing assays were carried out essentially as previously described (Soukup and Breaker, 1999). 5′^32P-labeled RNAs were incubated at room temperature for approximately 40 h in 10 μl volumes containing 50 mM Tris-HCl (pH 8.3 at 25° C.), 20 mM MgCl2, 100 mM KCl, and included test compounds at the concentrations indicated. Spontaneous cleavage products were separated by denaturing 10% PAGE, visualized using a Phosphorlmager (Molecular Dynamics), and quantified using SAFA v1.1 software (Das et al., 2005). The amount of RNA cleaved at each nucleotide position was obtained from SAFA analysis, which automatically determines reference nucleotide positions with invariant levels of spontaneous cleavage to correct for different amounts loaded in each lane. Individual band intensities at each modulated site were summed and normalized to obtain values for the fraction of RNA that was structurally modulated, assuming that there was no modulation in the absence of ligand and maximal modulation in the presence of the highest concentration of ligand. Values for the apparent dissociation constant (KD) were determined by fitting the plot of the fraction modulated (F), versus the ligand concentration, [L], at all three indicated modulation sites to the equation F [L]/([L]+KD) using SigmaPlot 9 software (Systat Software, Inc.)."}, "SAM-II aptamer 156 metA [2]": {"target": "SAM-II aptamer 156 metA", "settings": "Corbino et al., 2005; read-out: apparent KD for SAM; cited from earlier work"}, "[3]": {"target": "SAM-I riboswitch 124 yitJ", "settings": "calculated previously (Lim et al. 2006); read-out: KD [compound] (nM) SAM-I; cited from earlier work"}, "68 metH RNA [4]": {"test_system": "68 metH RNA", "assay": "Equilibrium dialysis of [3H]SAM with 68 metH RNA", "type": "binding, Dechloromonas aromatica", "protocol": "(§1) The chambers were separated by a permeable membrane with a molecular weight cut-off of 5000 Daltons.\n(§2) Equilibrium dialysis was performed by delivering 20 μl samples to each side of a Dispo-Equilibrium Biodialyzer (The Nest Group, Inc., Southboro, Mass., USA) wherein the separation between chambers is maintained by a dialysis membrane with a 5000 Dalton molecular weight cut-off. One chamber contained a buffer solution comprised of 100 mM Tris-HCl (pH 8.3 at 24° C.), 20 mM MgCl2, 100 mM KCl, plus 100 nM [^3H]SAM."}, "[5]": {"target": "132 Sc RNA (SAM-IV riboswitch)", "assay": "In-line probing of 132 Sc RNA (SAM-IV)", "type": "binding, Streptomyces coelicolor", "source_text": "DNA corresponding to the aptamer in the pEZ35 plasmid (above) was amplified by PCR with primers 5′-[…]"}, "[6]": {"target": "SAM-I riboswitch 124 yitJ", "assay": "SAM-I riboswitch binding (literature)", "settings": "ratio of the KD for the compound to that for SAM"}, "SAM-II aptamer 156 metA [7]": {"test_system": "SAM-II aptamer 156 metA", "settings": "10 µM RNA, 100 nM [3H]SAM", "protocol": "as §1, §2"}, "[8]": {"target": "110 Vc2 RNA (Vc2 aptamer, GEMM RNA)", "assay": "In-line probing of 110 Vc2 RNA (cyclic di-GMP aptamer)", "type": "binding, Vibrio cholerae", "protocol": "In-line probing assays were performed using methods similar to those described previously (Soukup 1999). Briefly, 5′^32P-labeled RNAs (˜[…] for cyclic di-GMP KD analysis, ˜5 nM for all other analyses) were incubated at 23° C. for approximately 40 hours in 20 mM MgCl2, 100 mM KCl, and 50 mM Tris (pH 8.3 at 23° C.) with the indicated compounds. RNA cleavage products were separated by denaturing 10% PAGE, visualized using a Phosphorimager (Molecular Dynamics), and analyzed using SAFA v1.1 software (Das 2005) or ImageQuant (Molecular Dynamics). SAFA software was used to normalize to correct for differences in the amounts of RNA loaded to each lane and to determine the intensity of each band.\nTo determine the KD of 110 Vc2 for cyclic di-GMP, in-line probing was conducted as described above with various concentrations of cyclic di-GMP. Due to the use of an exceptionally low concentration of radiolabeled 110 Vc2 RNA, the samples loaded were supplemented with additional unlabeled RNA that had been separately subjected to in-line probing. […] Dissociation constants (KD) were determined using ImageQuant software (Molecular Dynamics) to compare individual band intensities at sites of structural modulation assuming that there was no modulation in the absence of ligand and complete modulation in the presence of the highest ligand concentration tested. […]"}, "[9]": {"target": "Escherichia coli PilZ protein domain (Escherichia coli, UniProt P76010)", "sequence (P76010 whole entry, the tested form may be a part)": "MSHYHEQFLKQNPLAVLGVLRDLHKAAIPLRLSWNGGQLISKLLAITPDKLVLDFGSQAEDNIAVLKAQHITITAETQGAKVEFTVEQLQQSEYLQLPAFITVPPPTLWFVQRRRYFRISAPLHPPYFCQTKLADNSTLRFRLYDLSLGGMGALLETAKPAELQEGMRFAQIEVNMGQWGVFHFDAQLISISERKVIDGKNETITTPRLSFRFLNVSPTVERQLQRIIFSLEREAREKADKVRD", "settings": "Ryjenkov 2006; cited from earlier work"}, "[10]": {"assay": "Kinetics of cyclic di-GMP degradation under in-line probing conditions", "type": "physicochemical", "settings": "in-line probing buffer, pH 8.3 at 23° C., 100 mM KCl, 20 mM MgCl2", "protocol": "A solution of 500 μM cyclic di-GMP was incubated in the presence of in-line probing buffer (50 mM Tris-HCl [pH 8.3 at 23° C.], 100 mM KCl, 20 mM MgCl2) for varying amounts of time. The reactions were initiated by the addition of cyclic di-GMP and quenched when a 10 μL aliquot was injected onto an Agilent Technologies 1200 series HPLC equipped with an Agilent Zorbax Oligo column (5 μM, 6.2 mm×80 mm). The compounds were eluted using a gradient mobile phase composed of 95% 0.1 M NaHPO4 [pH 6.0 at 23° C.] and 5% acetonitrile to 100% 1 M NaCl. The absorbance was monitored at 254 nm. A rate constant for cyclic di-GMP was established by plotting the natural logarithm of the fraction of the cyclic di-GMP remaining uncleaved versus time, wherein the negative slope of the resulting line reflects the rate constant."}, "[11]": {"test_system": "wild-type 149 moaA RNA (Moco RNA)-lacZ reporter fusion", "assay": "β-galactosidase reporter assay of 149 moaA RNA fusion", "type": "cell-based, Escherichia coli", "settings": "modC deletion strain, LB supplemented with 10 mM compound", "source_text": "These sequences were cloned into a translational fusion plasmid upstream of, and in-frame with β-galactosidase reporter gene. The fusion was placed under the control of a constitutively active lacUV5 promoter to eliminate the effects of upstream anaerobic- and molybdate-dependent promoter regulation that naturally restricts expression of the moaA operon. This series of plasmids was placed in a strain of E. coli wherein the moaA gene was deleted. The resulting transformants were transformed with a plasmid containing the moaABCDE operon under the control of an arabinose-inducible and glucose-repressible promoter (Guzman et al., 1995). These doubly transformed strains enabled us to determine the role of the 149 moaA RNA on reporter gene expression when Moco concentrations are either high or low.\nTo determine whether molybdate is critical for gene regulation by 149 moaA RNA, a modC knockout strain of E. coli was conducted to eliminate high affinity molybdate transporter function. This strain was then transformed with the moaABCDE inducible expression plasmid and the wild-type and mutant 149 moaA reporter fusion plasmids.\nTo measure gene expression from lacZ in the wild-type and mutant reporter strains of E. coli, the cells were grown in a 14 mL culture vial with shaking overnight at 37° C. in 3 mL of LB with supplementation as indicated. […]"}},
  "note": "Values joined by “and” are separate entries in the source; they are usually repeats but may differ in a detail not shown here. Equal values may be shown once.",
  "data": [
    {"smiles": "Nc1ncc2[nH]cnc2n1", "note": "[2-aminopurine]", "values": [
      {"measurement": "binding by 17-90 RNA", "setting": "17-90 RNA", "value": "no binding is detected"}
    ]},
    {"smiles": "Nc1nc2c(c(=O)[nH]1)CC=N2", "note": "[7-deazaguanine]", "values": [
      {"measurement": "binding by 17-90 RNA", "setting": "17-90 RNA", "value": "bound with only a slightly better affinity"}
    ]},
    {"smiles": "Cn1cnc2nc(N)[nH]c(=O)c21", "note": "[7-methylguanine]", "values": [
      {"measurement": "binding by 17-90 RNA", "setting": "17-90 RNA", "value": "lack of 7-methylguanine binding"}
    ]},
    {"smiles": "Nc1ncnc2c1ncn2[C@@H]1O[C@H](CSC[C@H](N)C(=O)O)[C@@H](O)[C@H]1O", "note": "[SAC, S-adenosylcysteine]", "values": [
      {"measurement": "loss of affinity relative to SAH", "setting": "68 metH RNA [1]; in-line probing", "value": "only a modest loss of affinity"}
    ]},
    {"smiles": "C[S+](CC[C@H](N)C(=O)[O-])C[C@H]1O[C@@H](n2cnc3c(N)ncnc32)[C@H](O)[C@@H]1O", "note": "(stereo partly drawn) [SAM, S-adenosyl-L-methionine]", "values": [
      {"measurement": "Kd", "setting": "SAM-II aptamer 156 metA [2]", "value": "~1000", "unit": "nM"},
      {"measurement": "Kd", "setting": "[3]", "value": 5, "unit": "nM"},
      {"measurement": "discrimination against SAM", "setting": "68 metH RNA [4]; SAH versus SAM", "value": "~3 orders of magnitude"},
      {"measurement": "Kd", "setting": "68 metH RNA [4]; equilibrium dialysis, 25 μM 68 metH RNA", "value": "≥ 25000", "unit": "nM"},
      {"measurement": "Kd", "setting": "[5]; in-line probing, 132 Sc RNA, read-out: KD [compound] (nM) SAM-IV", "value": "150 nM and ~150 nM"},
      {"measurement": "KD [compound]/ KD [SAM] SAM-IV", "setting": "[5]; ratio of the KD for the compound to that for SAM", "value": 1},
      {"measurement": "apparent KD relative to apparent KD for SAH", "setting": "68 metH RNA [1]; in-line probing, commercial SAM (contains ~10% SAH)", "value": "no more than 10 fold"},
      {"measurement": "KD [compound]/ KD [SAM] SAM-I", "setting": "[6]", "value": 1}
    ]},
    {"smiles": "C[S+](CC[C@H](N)C(=O)O)C[C@H]1O[C@@H](n2cnc3c(N)ncnc32)[C@H](O)[C@@H]1O", "note": "(stereo partly drawn) [[^3H]SAM, S-(5′-adenosyl)-L-methionine-(methyl-3H)]", "values": [
      {"measurement": "shift of the distribution of [3H]SAM to the RNA chamber", "setting": "68 metH RNA [4]; 10 µM RNA, 100 nM [3H]SAM", "value": "no shift"},
      {"measurement": "shift of the distribution of [3H]SAM to the RNA chamber", "setting": "SAM-II aptamer 156 metA [7]", "value": "~1.5", "unit": "fold"}
    ]},
    {"smiles": "Nc1nc2c(ncn2[C@@H]2O[C@@H]3COP(=O)(O)O[C@H]4[C@@H](O)[C@H](n5cnc6c(=O)[nH]c(N)nc65)O[C@@H]4COP(=O)(O)O[C@H]3[C@H]2O)c(=O)[nH]1", "note": "[cyclic di-GMP]", "values": [
      {"measurement": "Kd", "setting": "[8]; in-line probing with various cyclic di-GMP concentrations, read-out: apparent dissociation constant (KD)", "value": "~1", "unit": "nM"},
      {"measurement": "Kd", "setting": "[9]", "value": 840, "unit": "nM"},
      {"measurement": "rate constant for spontaneous cleavage", "setting": "[10]", "value": "3.2e-06", "unit": "min⁻¹"}
    ]},
    {"smiles": "CN(C)Cc1c[nH]c2nc(N)[nH]c(=O)c12", "note": "[dimethylaminomethyl analog, 7-(N,N″-dimethylaminomethyl)-7-deazaguanine]", "values": [
      {"measurement": "Kd", "setting": "17-90 RNA", "value": "~500", "unit": "nM"}
    ]},
    {"smiles": "N[C@@H](CCS)C(=O)O", "note": "[homocysteine]", "values": [
      {"measurement": "modulation of the RNA structure", "setting": "68 metH RNA [1]", "value": "neither homocysteine nor methionine cause any modulation of the RNA structure"}
    ]},
    {"smiles": "CSCC[C@H](N)C(=O)O", "note": "[methionine, L-methionine]", "values": [
      {"measurement": "modulation of the RNA structure", "setting": "68 metH RNA [1]", "value": "neither homocysteine nor methionine cause any modulation of the RNA structure"}
    ]},
    {"smiles": "Nc1nc2c(ncn2[C@@H]2O[C@H](COP(=O)(O)O)[C@@H](O)[C@H]2O)c(=O)[nH]1", "note": "[pG]", "values": [
      {"measurement": "binding by the aptamer", "setting": "[8]; concentration five orders of magnitude higher than the KD for cyclic di-GMP", "value": "not bound by the aptamer"}
    ]},
    {"smiles": "N#CC1C=Nc2nc(N)[nH]c(=O)c21", "note": "(stereo not drawn) [preQ0, 7-cyano-7-deazaguanine]", "values": [
      {"measurement": "Kd", "setting": "17-90 RNA", "value": "~500", "unit": "nM"}
    ]},
    {"smiles": "[Na+].[Na+].[O]=[Mo](=[O])([O-])[O-]", "note": "[sodium molybdate]", "values": [
      {"measurement": "reporter gene expression of WT 149 moaA reporter fusion", "setting": "[11]", "value": "expression is repressed"}
    ]},
    {"smiles": "[Na+].[Na+].[O]=[W](=[O])([O-])[O-]", "note": "[sodium tungstate]", "values": [
      {"measurement": "reporter gene expression of WT 149 moaA reporter fusion", "setting": "[11]", "value": "becomes derepressed"}
    ]}
  ]
}
